Experiments:
Assay type in all cases: in vivo
[1] = tested on: jejunal and ileal crypt cells; assay: Rat ischemia-reperfusion injury: crypt cell proliferation (5-BrdU); conditions: IR rats, oral insulin, p<0.05
Experimental: Surgical procedure: Following overnight fasting, the animals were anesthetized with intraperitoneal injection of pentobarbital (IP 40 mg/kg). Using sterile techniques, the abdomen was opened using a midline incision. […] IR underwent laparotomy, mobilization and occlusion of SMA and portal vein by vascular clamp for 30 minutes followed by a reperfusion period of 24 hours. Before closure of the abdomen, the rats were resuscitated with a 3-ml intraperitoneal injection of warm 0.9% saline. For all operations, the abdominal cavity was closed in two layers with a running suture of Dexon “S” Polyglycolic Acid 3/0. Rats were allowed free access to water and food. Twenty-four hours later, the rats were anesthetized with intraperitoneal pentobarbital (75 mg/kg) and were sacrificed by open pneumothorax.
Enterocyte proliferation and apoptosis: Crypt cell proliferation was assessed using 5-bromodeoxyuridine (5-BrdU). Standard BrdU labeling reagent (Zymed Laboratories, Inc, San Francisco, Calif.) was injected intraperitoneally at a concentration of 1 ml/100 g body weight 2 hours prior to sacrifice. […] An index of proliferation was determined as the ratio of crypt cells staining positively for BrdU per 10 crypts.

[2] = tested on: rat model of short bowel syndrome; assay: Rat model of SBS: histology, villus height and crypt depth
Experimental: Animal treatment: Animals were obtained from the Rappaport Faculty of Medicine (Technion, Haifa, Israel). Male rats weighing 240-260 g were kept in individual stainless steel cages at constant temperature and humidity, and a 12-hour light-dark cycle was maintained. Rats were fasted 12 hours prior to the experiment with free access to water. Animals underwent one of two surgical procedures: bowel transection and re-anastomosis or 75% bowel resection and anastomosis. General anesthesia was induced with Pentobarbital (IP 40 mg/kg). Using sterile techniques, the abdomen was opened using a midline incision. In sham rats, simple bowel transection and end-to-end re-anastomosis was performed 15 cm proximal to ileo-cecal junction. In SBS animals, small bowel was resected from a point 5 cm distal to the ligament of Treitz to a point 10 cm proximal to the ileo-cecal junction. Bowel continuity was restored by end-to-end anastomosis using 5-0 Vicryl interrupted sutures. For all operations, the abdominal cavity was closed in two layers with a running suture of 3-0 Dexon. Prior to closure of the abdomen, the rats were resuscitated with a 3 ml intraperitoneal injection of warm normal saline. Rats were fasted for 24 hours but were allowed free access to water.
(§1) Group C—SBS-Insulin (SBS-INS, n=13) rats underwent bowel resection and were fed regular chow diet and water containing insulin (ACTRAPID insulin, NOVO NORDISK, Denmark) at concentration of 1 u/ml. Food and fluid intake of animals were monitored as well as weight for a period of 14 days following treatment after which the animals were sacrificed following intraperitoneal injection of pentobarbital (75 mg/kg).
Segments of small bowel were fixed for 24 hours in 10% formalin and processed into standard paraffin blocks. Five-micron tissue slices stained with hematoxylin-eosin. The sections were studied microscopically using a micrometer eyepiece. Histological images were loaded on a 760×570 pixels resolution buffer using a computerized image analysis system composed of a trichip RGB video-camera (Sony, Japan), installed on a light microscope (Zeiss, Germany) and attached to an IBM compatible personal computer (Pentium III, MMX, 450 mhz, 125 MB RAM), equipped with a frame grabber. […] The villus height and crypt depth were measured using the Image Pro Plus 4 image analysis software (Media Cybernetics, Baltimore, Md., USA). Ten villi and crypts in each section were measured and the mean reading was recorded in microns.

enterocytes = assay: Rat model of SBS: enterocyte apoptosis (TUNEL assay); conditions: SBS rats, oral insulin
Experimental: (§2) Animal treatment: Animals were obtained from the Rappaport Faculty of Medicine (Technion, Haifa, Israel). Male rats weighing 240-260 g were kept in individual stainless steel cages at constant temperature and humidity, and a 12-hour light-dark cycle was maintained. Rats were fasted 12 hours prior to the experiment with free access to water. Animals underwent one of two surgical procedures: bowel transection and re-anastomosis or 75% bowel resection and anastomosis. General anesthesia was induced with Pentobarbital (IP 40 mg/kg). Using sterile techniques, the abdomen was opened using a midline incision. […]
as §1
Apoptosis of enterocytes was assessed by terminal […] nick-end labeling (TUNEL) immunohistochemical assay using the I.S. Cell Death Detection kit (Boehringer Mannheim GmbH, Mannheim, Germany). […] For each group, the number of stained cells was counted in at ten villi in areas without necrosis. […]

[3] = tested on: jejunal and ileal crypt cells; assay: Rat model of SBS: crypt cell proliferation (5-BrdU incorporation); conditions: SBS rats, oral insulin, vs SBS-untreated, p<0.05
Experimental: as §2, §1
Crypt Cell Proliferation and Enterocyte Apoptosis: Rats were injected with standard 5-bromodeoxyuridine (5-BrdU) labeling reagent (Zymed Lab, Inc, CA) at dose 1 ml per 100 g body weight two hours prior to sacrifice. […] An index of proliferation was determined as the ratio of crypt cells staining positively for BrdU per 10 crypts.

[4] = SBS-insulin rats vs SBS-untreated, 14 days, p<0.05

## insulin
[1]; IR 173±8
  enterocyte proliferation index in ileum: 289±26 BrdU positive cells/10 crypts
[1]; IR 212±18
  enterocyte proliferation index in jejunum: 298±21 BrdU positive cells/10 crypts
[2]; SBS rats, oral insulin, vs SBS-untreated
  villi height in jejunum: not associated with an increase
[2]; [4]
  increase in ileal crypt depth: 40%
  increase in ileal villus height: 15%
  increase in jejunal crypt depth: 15%
enterocytes; vs SBS-untreated
  apoptotic cells number in ileum: did not affect
enterocytes; SBS-untreated 29±7, mean±SEM, p<0.05
  apoptotic index in jejunum: 11±3 TUNEL positive cells/10 villi
[3]
  additional increase in proliferation index in jejunum: 36%
  increase in proliferation index in ileum: 52%

Reference: patent US8026211B2, “Methods and formulations for increasing intestinal function” (Technion Research & Development Foundation Ltd., priority 2004, dated 2011)
